SMILES strings stand for the structures.

The nature of series [1]: Stability of Disarib in PBS (HPLC). Type of series: physicochemical. Particulars: 37 °C; 0, 2, 4, 6 h; HPLC peak. Here is the method: (§1) The stability of Disarib (100 μM) was investigated in phosphate-buffered saline (PBS) and in plasma. The blood was collected from rats by heart puncture, and plasma was separated for the study. After the addition of Disarib into plasma or PBS, the mixture was incubated at 37 °C in water bath[25],[26]. The samples were then collected at different time points, 0, 2, 4, and 6 h, mixed manually with acetonitrile (1:1), and analyzed on HPLC[27],[40]. The values plotted represent the mean of three independent experiments. The samples were analyzed by HPLC using the Shimadzu HPLC system. LC was carried out on the C18 analytical column. The mobile phase was the gradient of acetonitrile and water. Disarib specific peaks were detected at 232 nm. The injection volume was 20 μl, and the flow rate was 1.2 ml/min. The standard curves were constructed by plotting the peak area vs. concentration of Disarib[40].

A short description of series [2]: Pharmacokinetics in serum of Wistar rats after oral administration (HPLC). Type of series: in vivo, Wistar rats (Rattus norvegicus). Particulars: 50 mg/kg b. wt oral. Here is the method: Wistar rats (Rattus norvegicus) were administered with 50 mg/kg Disarib orally, and blood was collected by heart-puncture method following sacrifice at different time points (15 min, 30 min, 1, 2, 4, 6, 8, 10, 12, 24, 48 and 72 h) following treatment. Blood was allowed to clot, and serum was separated by centrifugation (900×g, 10 min) and deproteinized by adding acetonitrile. Samples for standard calibration curve were prepared by spiking 100 μM Disarib in rat plasma. The supernatant was loaded onto a C18 column, and HPLC analysis was performed in acetonitrile:water gradient, as described before[23],[38] (Shimadzu, Kyoto, Japan). Disarib specific peak were acquired at 232 nm wavelength. At least two mice were sacrificed at each time point for the study. Pharmacokinetic parameters were analysed by using LabSolutions software (Shimadzu, Japan), and the values obtained were plotted with GraphPad Prism (ver5.1) software, where C is predicted concentration and t is time. Data was analysed using nonlinear regression analysis. Maximum drug plasma concentration (Cmax) and Time to reach Cmax was determind by area under the curve versus time curve. Clearance (Cl) and steady state volume of distribution (Vss) were calculated respectively by rate of drug elimination and amount of drug in the body at equilibrium condition vs steady state drug concentration in plasma.
The samples were analyzed by HPLC using the Shimadzu HPLC system. LC was carried out on the C18 analytical column. The mobile phase was the gradient of acetonitrile and water. Disarib specific peaks were detected at 232 nm. The injection volume was 20 μl, and the flow rate was 1.2 ml/min. The standard curves were constructed by plotting the peak area vs. concentration of Disarib[40].

Series [3] has as its system interaction of BCL2 with BAX. More on the design: method as in PMID 28223017. The settings on record: cited from earlier work.
A further series relates to BCL-xL. More on the design: method as in PMID 28223017, PMID 27693384. The settings on record: cited from earlier work.
For another series, the system named is Wistar rats. The series is described as follows: Single-dose acute toxicity / LD50 determination with general observation. Type of series: in vivo, Wistar rats (Rattus norvegicus). Here is the method: All the studies were designed according to the guidelines of the Central Drug Standard Control Organization (Schedule-Y-CDSCO, Appendix III), India (https://cdsco.gov.in/opencms/opencms/en/Drugs/New-Drugs/). Single-dose toxicity analysis was performed in male Wistar rats. Animals were segregated in groups of five, and Disarib was administered using oral gavage (100, 1000, 2000 mg/kg b. wt.). Carboxymethyl cellulose, used for preparing Disarib, served as vehicle control to feed control animals. Mortality, general appearance, and behavior were initially observed for 24 h. Animals were further observed for 14 days and were further subjected to toxicity analysis.
The median lethal dose was determined in male Wistar rats. […] Disarib was orally administered after making solution using carboxymethyl cellulose (100, 1000, 2000 mg/kg), and lethality was evaluated over 14 days after treatment. Carboxymethyl cellulose treated animals served as vehicle control.
General cage-side examination of the treated and control animals were performed every day during the experiment. General behavior, appearance, skin, hairs, secretion (lachrymation), and death were evaluated daily, according to the guidelines of CDSCO, India[41],[42].
Body weight was recorded on every 4th day from the date of administration of Disarib up to […]. Food and water consumption were monitored every day from the date of administration of the compound. During the present study, on every alternate days ~ 250 g food pellet and ~ 500 ml water were given to each cage (control and treatment groups).

The test system of a further series is bone marrow cells. The series is described as follows: Micronucleus assay for genotoxicity. Type of series: in vivo. Particulars: Wistar rats, 50 mg/kg b. wt. oral; 24, 48 and 72 h post-treatment. Here is the method: To evaluate genotoxicity caused by Disarib at the effective dose, micronucleus assay was performed[32]–[34]. Wistar rats (n = 6) were orally administered with Disarib (50 mg/kg), and bone marrow cells were collected after 24, 48, and 72 h post-treatment. Bone marrow cells were flushed out in 1X PBS containing EDTA, centrifuged, fixed (2% PFA) and stained with DAPI. Cells exposed to γ-irradiation (4 Gy) served as a positive control for the assay and were imaged using a fluorescence microscope (Nikon, Tokyo, Japan). At least 500 cells were counted from each animal for each time point, and data was plotted and represented as a bar diagram.

For series [4], the system named is interaction of BCL2 with BAK. On the set-up: method as in PMID 28223017. Particulars: cited from earlier work.
Series [5] in a line: In vitro stability of Disarib in plasma (HPLC). Type of series: in vitro ADME, rats. Particulars: 80% plasma diluted in PBS; 37 °C; 0, 2, 4, 6 h; HPLC peak. Here is the method:
as §1

Another series has as its system mice tumor models. The settings on record: cited from earlier work.

Turning to `O=C1Nc2ccccc2/C1=C/c1c(-c2ccc(Br)cc2)nc2sc(Cc3ccc(Cl)cc3)nn12` [Disarib], the “stability in PBS” value in [1] is “stable in PBS up to 6 h”. Further, the “maximum concentration (Cmax) in serum” value in series [2] is reported as ~ 18 μg/ml. For the same compound, the “steady state volume of distribution (Vss)” value in [2] (estimated) was 4.16 L/kg. Moreover, in series [2] (estimated from rate of drug elimination), the clearance rate was 0.44 mL/min/kg. For the same compound, in [2] (serum), the t1/2 was 36 h and the “time to Cmax (Tmax)” value is reported as 24 h. For the same compound, the “disruption of BCL2-BAX interaction” value in series [3] is “did not disrupt the interaction of BCL2 with BAX”. In the series on BCL-xL, the “interaction with BCL-xL” value is given as “not with other antiapoptotic proteins such as BCL-xL”. The “food and water consumption” value in the series with Wistar rats (Wistar rats, 100, 1000, 2000 mg/kg oral, assessed daily) was “no difference in eating and drinking habits”. Further, in the series on Wistar rats (Wistar rats, 100, 1000, 2000 mg/kg oral, daily examination), the “cage-side signs (behavior, appearance, lachrymation, locomotion, hair, skin)” value is “comparable to the vehicle control group”. For the same compound, in the series on Wistar rats (Wistar rats, 100, 1000, 2000 mg/kg oral, weighed every 4 days up to 32 days), the body weight result is “gradual increase in body weight of the animals, both in control and treated groups”. The “mortality and visible signs of toxicity” value with Wistar rats (Wistar rats, highest dose 2000 mg/kg b. wt. oral) was “did not cause mortality or any visible sign of toxicity”. The “Maximum Tolerated Dose (MTD)” value with Wistar rats (Wistar rats, single oral dose, estimated) was over 2000 mg/kg. The same compound registered an LD50 in the series on Wistar rats (male Wistar rats, single oral dose, 14 days observation) of over 2000 mg/kg b. wt. For the same compound, in the series on bone marrow cells, the “genotoxicity (micronucleus formation in bone marrow cells)” value is “no DNA damage induced by Disarib”. The “disruption of BCL2-BAK interaction” value in series [4] is “disruption of the interaction of BCL2 with its proapoptotic partner BAK”. Besides, in series [5], the stability in plasma entry was “gradually decreased in plasma with increasing time”. Besides, the tumor regression result with mice tumor models (mice, intraperitoneal route) is given as “efficient tumor regression comparable to that of ABT199”. Further, the tumor progression result with mice tumor models (oral administration, multiple mice tumor models) is recorded as “significant reduction in tumor progression”.
